Test results as given in patent US20250066351A1, “PYRAZOLO[1,5-A]PYRIDIN-2,3-YL AMIDES AS KV7 CHANNEL ACTIVATORS” (Biohaven Therapeutics Ltd., priority 2022, published 2025).

The compounds below were run against T1, hKv7.2/7.3 (Homo sapiens, UniProt O43525+O43526) (assay: Kv7.2/7.3 Activation Assay, QPatch planar patch-clamp single concentration screen). Conditions: increase in current over baseline, Kv7.2/Kv7.3 co-expressing HEK cells, compound concentration 3 μM, steady-state current at end of 2 s pulse to −30 mV.
T1 construct: host or cells: HEK cells, tetracycline-inducible expression
Format: cell-based
Experimental: The ability of compounds to potentiate K-currents in Kv7.2/7.3 containing HEK cells was assessed using planar patch-clamp on the QPatch automated screening platform.
Cell Line: The hKv7.2/7.3 cell line was obtained from Chantest (Cleveland, OH 44128) cat. #CT6147. These HEK cells will express the Kv7.2/7.3 ion channels when induced.
Cell Culture: Cells were maintained in a media containing DMEM/F12; 50/50 (GIBCO cat. #11330), 10% Fetal Bovine Serum (FBS) (GIBCO cat. #26140), 100 units/mL Penicillin-Streptomycin (GIBCO cat. #15140), 0.005 mg/mL Blasticidin (INVIVOGEN cat. #ant-bl-1), 0.5 mg/mL Geneticin (GIBCO cat. #10131), 0.1 mg/mL Zeocin (GIBCO cat. #R25001). Cells used in the electrophysiology assay were maintained in a media without Blasticidin, Geneticin and Zeocin for 2 days and channel expression was induced by adding tetracycline (BIOLINE cat. #BIO-87030) at a final concentration of […]. Cells were grown in T-175 flask to ˜75% confluency. Currents were recorded 24 hours after channel induction.
Compound Plates: Test compounds were prepared by performing serial dilutions on a Biomek NX^P (BECKMAN COULTER). Final dilutions were made in external recording solution with a final DMSO concentration of 0.1% DMSO. For single concentration screens each plate had 10 μM retigabine as a positive control and 0.1% DMSO as a negative control.
Electrophysiology: On the day of the experiment cells were washed with Hank's Balanced Salt Solution (HBBS) (GIBCO cat. #14175) and harvested with Tryple (GIBCO cat. #12604). Cells were then centrifuged at 2000 rpm for 5 minutes and resuspended in CHO—S-SFM (GIBCO cat. #12052) at […]. Cells were stirred for 30 minutes before experiments were started. External recording solution contained (in mM): NaCl (145), KCl (4), CaCl2 (2), MgCl2 (1), HEPES (10) and Glucose (10); pH was adjusted to 7.4 with NaOH and the osmolarity was adjusted to 300-305 mOsM with sucrose if necessary. Internal solution contained (in mM): KCl (125), KF (10), EGTA (5), Na2ATP (5), MgCl2 (3.2), HEPES (5); pH was adjusted to 7.2 with KOH and the osmolarity was adjusted to 298-302 mOsM with sucrose.
Potassium channel activity was measured on the QPatch HTX (Sophion Bioscience) using QPlates with 48-wells/plate. Each cell was taken as an independent experiment and only one compound was tested per well. Potassium channel activity was elicited by holding at −80 mV and stepping to −30 mV for 2 s followed by a 100 ms pulse to −120 mV.
Single concentration screen: Baseline conditions were obtained by recording 5 sweeps in the external solution only, this was repeated for three applications of the external solution. The effect of test compounds on elicited current was then assessed by recording 5 sweeps in the presence of a 3 μM compound solution. The steady-state current at the end of the 2 s pulse to −30 mV was measured to determine the fold increase from baseline.

| Compound | QPatch Kv7.2/7.3 Activity |
| --- | --- |
| C[C@@](O)(CC(=O)Nc1nn2ccc(C(F)(F)F)cc2c1-c1cccc(F)c1)c1ccccn1 [Example 39, (R)-N-(3-(3-fluorophenyl)-5-(trifluoromethyl)pyrazolo [1,5-a]pyridin-2-yl)-3-hydroxy-3-(pyridin-2-yl)butanamide] | + (2.0-3.99 (+)) |
| C[C@@](O)(CC(=O)Nc1nn2ccc(C(F)(F)F)cc2c1C1CCC1)C1CC1 [Example 87, (R)-N-(3-cyclobutyl-5-(trifluoromethyl)pyrazolo[1,5-a]pyridin-2-yl)-3-cyclopropyl-3-hydroxybutanamide] | + (2.0-3.99 (+)) |
| Cn1cc(-c2c(NC(=O)CC(C)(C)O)nn3ccc(C(F)(F)F)cc23)cn1 [Example 52, 3-hydroxy-3-methyl-N-(3-(1-methyl-1H-pyrazol-4-yl)-5-(trifluoromethyl)pyrazolo [1,5-a]pyridin-2-yl)butanamide] | − (<1.2-fold (−)) |
| CC(C)(O)CC(=O)Nc1nn2ccc(Cl)cc2c1-c1ccc(OC(F)(F)F)cc1 [Example 68, N-(5-chloro-3-(4-(trifluoromethoxy)phenyl)pyrazolo[1,5-a]pyridin-2-yl)-3-hydroxy-3-methylbutanamide] | + (2.0-3.99 (+)) |
| CC(C)(C)CC(=O)Nc1nn2ccccc2c1C1CCC1 [Example 1, N-(3-cyclobutylpyrazolo[1,5-a]pyridin-2-yl)-3,3-dimethylbutanamide] | + (2.0-3.99 (+)) |
| C[C@](O)(CC(=O)Nc1nn2ccc(C(F)(F)F)cc2c1C1CCC1)c1ccccc1 [Example 29, (S)-N-(3-cyclobutyl-5-(trifluoromethyl)pyrazolo [1,5-a]pyridin-2-yl)-3-hydroxy-3-phenylbutanamide] | ++ (4.0-5.99 (++)) |
| CC(C)(C)CC(=O)Nc1nn2c(Cl)cc(Cl)cc2c1-c1ccc(F)cc1 [Example 81, N-(5,7-dichloro-3-(4-fluorophenyl)pyrazolo [1,5-a]pyridin-2-yl)-3,3-dimethylbutanamide] | ++ (4.0-5.99 (++)) |
| C[C@@](O)(CC(=O)Nc1nn2cccc(F)c2c1C1CCC1)c1ccccn1 [Example 73, (R)-N-(3-cyclobutyl-4-fluoropyrazolo [1,5-a]pyridin-2-yl)-3-hydroxy-3-(pyridin-2-yl)butanamide] | − (<1.2-fold (−)) |
| CC(C)(C)CC(=O)Nc1nn2c(C(F)(F)F)cccc2c1-c1ccc(F)cc1 [Example 75, N-(3-(4-fluorophenyl)-7-(trifluoromethyl)pyrazolo [1,5-a]pyridin-2-yl)-3,3-dimethylbutanamide] | − (<1.2-fold (−)) |
| CC(C)(C)CC(=O)Nc1nn2ccc(C#N)cc2c1-c1ccc(F)cc1 [Example 59, N-(5-cyano-3-(4-fluorophenyl)pyrazolo [1,5-a]pyridin-2-yl)-3,3-dimethylbutanamide] | + (2.0-3.99 (+)) |
| C[C@](O)(CC(=O)Nc1nn2ccc(C(F)(F)F)cc2c1-c1ccc(F)cc1)c1ccccc1 [Example 32, (S)-N-(3-(4-fluorophenyl)-5-(trifluoromethyl)pyrazolo [1,5-a]pyridin-2-yl)-3-hydroxy-3-phenylbutanamide] | + (2.0-3.99 (+)) |
| CC(C)(C)CC(=O)Nc1nn2ccc(C3(O)CCC3)cc2c1C1CCC1 [Example 74, N-(3-cyclobutyl-5-(1-hydroxycyclobutyl)pyrazolo[1,5-a]pyridin-2-yl)-3,3-dimethylbutanamide] | ++ (4.0-5.99 (++)) |
| CC(C)(O)CC(=O)Nc1nn2ccc(C(F)(F)F)cc2c1-c1ccccc1F [Example 46, N-(3-(2-fluorophenyl)-5-(trifluoromethyl)pyrazolo [1,5-a]pyridin-2-yl)-3-hydroxy-3-methylbutanamide] | +/− (1.2-1.99-fold (+/−)) |
| CC(C)(O)CC(=O)Nc1nn2c(C(F)(F)F)cccc2c1-c1ccc(F)cc1 [Example 76, N-(3-(4-fluorophenyl)-7-(trifluoromethyl)pyrazolo [1,5-a]pyridin-2-yl)-3-hydroxy-3-methylbutanamide] | + (2.0-3.99 (+)) |
| CC(C)[C@H](C)C(=O)Nc1nn2ccccc2c1C1CCC1 [Example 6, (S)-N-(3-cyclobutylpyrazolo[1,5-a]pyridin-2-yl)-2,3-dimethylbutanamide] | + (2.0-3.99 (+)) |
| COc1ccn2nc(NC(=O)CC(C)(C)O)c(C3CCC3)c2c1 [Example 16, N-(3-cyclobutyl-5-methoxypyrazolo[1,5-a]pyridin-2-yl)-3-hydroxy-3-methylbutanamide] | +/− (1.2-1.99-fold (+/−)) |
| CC(C)(F)CC(=O)Nc1nn2ccc(C(F)(F)F)cc2c1C1CCC1 [Example 64, N-(3-cyclobutyl-5-(trifluoromethyl)pyrazolo [1,5-a]pyridin-2-yl)-3-fluoro-3-methylbutanamide] | +++ (>6-fold (+++)) |
| C[C@](O)(CC(=O)Nc1nn2ccc(Cl)cc2c1-c1ccc(F)cc1)C(F)(F)F [Example 62, (S)-N-(5-chloro-3-(4-fluorophenyl)pyrazolo [1,5-a]pyridin-2-yl)-4,4,4-trifluoro-3-hydroxy-3-methylbutanamide] | + (2.0-3.99 (+)) |
| CC(O)(CC(=O)Nc1nn2ccc(C#N)cc2c1C1CCC1)c1ccccc1 (stereo not shown) [Example 28, N-(5-cyano-3-cyclobutylpyrazolo[1,5-a]pyridin-2-yl)-3-hydroxy-3-phenylbutanamide] | +/− (1.2-1.99-fold (+/−)) |
| C[C@@](O)(CC(=O)Nc1nn2ccc(C(F)(F)F)cc2c1C1CCC1)c1ccccn1 [Example 35, (R)-N-(3-cyclobutyl-5-(trifluoromethyl)pyrazolo [1,5-a]pyridin-2-yl)-3-hydroxy-3-(pyridin-2-yl)butanamide] | + (2.0-3.99 (+)) |
| CC(C)(O)CC(=O)Nc1nn2cccc(F)c2c1C1CCC1 [Example 61, N-(3-cyclobutyl-4-fluoropyrazolo[1,5-a]pyridin-2-yl)-3-hydroxy-3-methylbutanamide] | +/− (1.2-1.99-fold (+/−)) |
| CC(C)(O)CC(=O)Nc1nn2ccc(Cl)cc2c1-c1ccc(F)cc1 [Example 58, N-(5-chloro-3-(4-fluorophenyl)pyrazolo [1,5-a]pyridin-2-yl)-3-hydroxy-3-methylbutanamide] | + (2.0-3.99 (+)) |
| CC(C)(O)CC(=O)Nc1nn2ccc(C#N)cc2c1C1CCC1 [Example 11, N-(5-cyano-3-cyclobutylpyrazolo[1,5-a]pyridin-2-yl)-3-hydroxy-3-methylbutanamide] | +/− (1.2-1.99-fold (+/−)) |
| CC(C)(O)CC(=O)Nc1nn2ccc(C(F)(F)F)cc2c1-c1cccc(Cl)c1 [Example 48, N-(3-(3-chlorophenyl)-5-(trifluoromethyl)pyrazolo [1,5-a]pyridin-2-yl)-3-hydroxy-3-methylbutanamide] | + (2.0-3.99 (+)) |
| Cn1ccc(-c2c(NC(=O)CC(C)(C)O)nn3ccc(C(F)(F)F)cc23)n1 [Example 67, 3-hydroxy-3-methyl-N-(3-(1-methyl-1H-pyrazol-3-yl)-5-(trifluoromethyl)pyrazolo [1,5-a]pyridin-2-yl)butanamide] | − (<1.2-fold (−)) |
| CC(C)(O)CC(=O)Nc1nn2ccc(C(F)(F)F)cc2c1-c1ccc(Cl)nc1 [Example 45, N-(3-(6-chloropyridin-3-yl)-5-(trifluoromethyl)pyrazolo [1,5-a]pyridin-2-yl)-3-hydroxy-3-methylbutanamide] | +/− (1.2-1.99-fold (+/−)) |
| CC(C)(O)CC(=O)Nc1nn2ccccc2c1C1CCC1 [Example 9, N-(3-cyclobutylpyrazolo[1,5-a]pyridin-2-yl)-3-hydroxy-3-methylbutanamide] | − (<1.2-fold (−)) |
| O=C(CC1(O)CCCC1)Nc1nn2ccc(Cl)cc2c1C1CCC1 [Example 20, N-(5-chloro-3-cyclobutylpyrazolo[1,5-a]pyridin-2-yl)-2-(1-hydroxycyclopentyl) acetamide] | + (2.0-3.99 (+)) |
